Literature values, collected in US20070053968A1 (Wyeth, priority 2005, published 2007).

Assays:
dopamine re-uptake = dopamine re-uptake (Homo sapiens, UniProt Q01959)
[1] = target: neuronal norepinephrine re-uptake (Homo sapiens, UniProt P23975)
[2] = compared with ODV free base
[3] = oral administration, versus venlafaxine, ODV or other salts of ODV
[4] = compared with ODV free base; remark: listed apart in the source
[5] = versus venlafaxine
[6] = target: H1-histaminergic receptors (Homo sapiens, UniProt P35367)
Chain of H1-histaminergic receptors (P35367 whole entry): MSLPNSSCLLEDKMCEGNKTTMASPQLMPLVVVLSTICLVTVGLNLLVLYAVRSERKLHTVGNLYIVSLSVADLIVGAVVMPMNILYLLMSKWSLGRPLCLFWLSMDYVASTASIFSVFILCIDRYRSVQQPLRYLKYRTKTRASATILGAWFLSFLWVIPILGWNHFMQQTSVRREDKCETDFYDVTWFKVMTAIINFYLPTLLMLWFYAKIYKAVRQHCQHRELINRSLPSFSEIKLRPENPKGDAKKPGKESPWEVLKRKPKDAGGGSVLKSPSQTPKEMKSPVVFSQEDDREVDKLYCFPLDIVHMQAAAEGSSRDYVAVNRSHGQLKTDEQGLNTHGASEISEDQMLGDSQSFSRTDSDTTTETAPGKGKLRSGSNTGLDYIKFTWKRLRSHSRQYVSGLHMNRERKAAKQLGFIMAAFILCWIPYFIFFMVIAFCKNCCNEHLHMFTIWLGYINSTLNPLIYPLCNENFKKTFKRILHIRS

Chain of dopamine re-uptake (Q01959 whole entry): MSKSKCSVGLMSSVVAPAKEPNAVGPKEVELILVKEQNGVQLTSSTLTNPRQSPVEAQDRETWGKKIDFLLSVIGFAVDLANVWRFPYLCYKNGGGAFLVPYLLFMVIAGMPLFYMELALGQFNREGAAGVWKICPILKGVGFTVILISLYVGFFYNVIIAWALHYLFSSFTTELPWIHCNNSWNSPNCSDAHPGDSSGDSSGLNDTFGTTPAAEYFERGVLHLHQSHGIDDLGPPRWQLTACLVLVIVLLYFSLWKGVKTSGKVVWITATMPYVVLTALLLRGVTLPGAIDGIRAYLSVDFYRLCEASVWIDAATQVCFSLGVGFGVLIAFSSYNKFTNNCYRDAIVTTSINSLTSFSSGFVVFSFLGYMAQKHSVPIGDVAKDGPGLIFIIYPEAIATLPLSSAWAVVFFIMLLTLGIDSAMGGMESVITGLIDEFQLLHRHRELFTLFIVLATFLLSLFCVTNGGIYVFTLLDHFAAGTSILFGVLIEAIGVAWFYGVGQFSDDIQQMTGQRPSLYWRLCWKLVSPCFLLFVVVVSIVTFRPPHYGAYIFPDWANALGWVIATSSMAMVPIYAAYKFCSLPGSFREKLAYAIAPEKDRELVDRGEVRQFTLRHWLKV
Chain of neuronal norepinephrine re-uptake (P23975 whole entry): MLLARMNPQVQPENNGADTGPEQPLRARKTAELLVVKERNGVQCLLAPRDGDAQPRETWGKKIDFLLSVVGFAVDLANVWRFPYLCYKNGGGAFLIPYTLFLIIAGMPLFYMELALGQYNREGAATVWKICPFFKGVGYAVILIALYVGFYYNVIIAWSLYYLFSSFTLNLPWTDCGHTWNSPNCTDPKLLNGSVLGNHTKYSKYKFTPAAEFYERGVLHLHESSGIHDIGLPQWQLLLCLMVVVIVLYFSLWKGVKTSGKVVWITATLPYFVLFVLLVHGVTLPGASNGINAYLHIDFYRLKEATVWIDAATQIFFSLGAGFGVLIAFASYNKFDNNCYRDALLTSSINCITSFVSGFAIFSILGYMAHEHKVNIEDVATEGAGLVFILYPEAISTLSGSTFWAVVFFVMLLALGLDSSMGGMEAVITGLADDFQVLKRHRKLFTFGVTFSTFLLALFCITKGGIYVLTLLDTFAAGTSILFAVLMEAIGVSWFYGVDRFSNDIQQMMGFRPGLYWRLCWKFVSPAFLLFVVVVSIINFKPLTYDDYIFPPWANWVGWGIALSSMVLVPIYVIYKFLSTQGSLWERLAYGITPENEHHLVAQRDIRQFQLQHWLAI

| Compound | affinity for α1-adrenergic receptors (α1-adrenergic receptors) | inhibition of dopamine re-uptake (dopamine re-uptake) | inhibition of neuronal norepinephrine re-uptake [1] | permeability [2] | incidence of nausea, vomiting, diarrhea, abdominal pain, headache, vaso-vagal malaise, and/or trismus [3] | bioavailability [4] | solubility compared with venlafaxine [5] | affinity for muscarinic receptors (muscarinic receptors) | affinity for H1-histaminergic receptors [6] |
| --- | --- | --- | --- | --- | --- | --- | --- | --- | --- |
| COc1ccc(C(CN(C)C)C2(O)CCCCC2)cc1 (racemic) [venlafaxine, (±)-1-[2-(dimethylamino)-1-(4-methoxyphenyl)ethyl]-cyclohexanol] | no significant affinity | weak inhibitors | potent inhibitors | – | – | – | – | – | – |
| CN(C)CC(c1ccc(O)cc1)C1(O)CCCCC1.O=C(O)CCC(=O)O (centres unmarked) [ODV succinate] | – | – | – | improved | lower incidence | improved | – | – | – |
| CN(C)CC(c1ccc(O)cc1)C1(O)CCCCC1 (centres unmarked) [ODV] | no significant affinity | weak inhibitors | – | – | – | – | more soluble | no significant affinity | no significant affinity |
